Data as given in patent publication US20130336940A1, “MODIFIED PIG ISLETS FOR DIABETES TREATMENT” (UNIVERSITE CATHOLIQUE DE LOUVAIN, priority 2011, published 2013).

Assays:
isolated pig islets = test: In vitro islet functionality (24 hr incubation at G5, G15, G15+Fsk; insulin/glucagon RIA); assay type: cell-based
Description: The following steps were performed with the samples kept on ice. […] The samples were then sonicated 4×20 seconds (Sonifier B 12 [Branson Sonic Power Company, Danbury, Conn., USA]) and centrifugated 10 minutes at 4° C. at 1500 rpm. The first supernatant formed was removed and kept at −20° C. […] The samples were then kept at −20° C. overnight. After a step of centrifugation 10 minutes at 4° C. at 1500 rpm, the second supernatant was removed and kept at −20° C. […] The three supernatants were then pooled and constituted the pancreas extract. Human insulin specific RIA KIT and Glucagon RIA KIT (Millipore, Billerica, Mass., USA) were used for the determination of the hormonal content in human/pig pancreatic extractions as well as in isolated islets (see below). The content of insulin and glucagon in the extracts was performed following the instructions of the manufacturer. […] After incubation overnight at room temperature, 1 mL of precipitating reagent were added, followed by incubation 20 minutes at 4° C. The samples were then centrifuged 20 minutes at 2000-3000×g at 4° C.
Three replicates per concentration were performed. Media were thereafter recovered for insulin and glucagon quantification and islets were transferred in acid-ethanol for hormones extraction and quantification by radioimmuno-assay (see above).

[1] = tested on: islets from wild-type pigs; test: Insulin release of wild-type pig islets with exogenous GLP-1; assay type: cell-based
Description: After isolation from wild-type pigs, islets were incubated overnight at 37° C., 5% CO2/95% O2 in RMPI medium containing 10% heat-inactivated FCS, 100 IU/ml penicillin, 100 μg/ml streptomycin and 5 mmol/l glucose. The function of islets in different culture conditions was assessed by 2 or 24 hr incubation of 200 islets in 1.5 ml buffer containing (i) 1 mmol/l glucose, (ii) 15 mmol/l glucose, (iii) 15 mmol/l glucose+[…] Forskolin (fsk) (Calbiochem-Behring, San Diego, Calif.) (added from a 1 mmol/l stock solution in DMSO), (iv) 15 mmol/l glucose+1 μmol/l fsk, (v) 15 mmol/l glucose+5 nM GLP-1 (Sigma Aldrich), (vi) 15 mmol/l glucose+50 nM GLP-1, (vii) 15 mmol/l glucose+500 nM GLP-1, (viii) 15 mmol/l glucose+1 μmol/l fsk+50 nM GLP-1. Three replicates per concentration were performed. Media were thereafter recovered for insulin quantification and islets were transferred in acid-ethanol for hormones extraction and quantification by radioimmuno-assay (Human insulin RIA kit, Millipore, Billerica, Mass., USA).

adult pig islets = conditions: cited from earlier work
[2] = 15 mmol/l glucose + 1 μmol/l Fsk, native and treated pig islets

## C=C[C@@]1(C)CC(=O)[C@]2(O)[C@@]3(C)[C@@H](O)CCC(C)(C)[C@@H]3[C@H](O)[C@H](OC(C)=O)[C@@]2(C)O1 [Fsk, Forskolin]
Isolated pig islets; 1 μmol/l Fsk, native and treated islets
  increase in insulin secretion after G15+Fsk in comparison with G5 and G15: 2 to 4 fold
Isolated pig islets; [2]
  effect on glucagon secretion or content: No effect
  effect on insulin content: No effect

## GLP-1: exogenous GLP-1 (Sigma Aldrich) added to wild-type pig islets
[1]; 500 nM GLP-1, glucose 15 mM, 24 hrs incubation
  increase of insulin release: 12%
[1]; GLP-1 at 500 nM
  stimulation index (ratio of insulin release at glucose 15 mM vs. 1 mM): significant increase
[1]; GLP-1 at 50-500 nM, glucose 15 mM, 2 hrs incubation
  increase of insulin release in comparison to glucose 15 mM alone: 10%

## glucagon: peptide hormone added to adult pig islets in cited literature studies
Adult pig islets; acute exposure to 1 or 10 μM glucagon
  increase of stimulation index: 30%
Adult pig islets; islets cultured in the presence of 10 μM glucagon
  basal insulin release in comparison with control situation: 2 fold
